How the values were obtained:
Format in all cases: cell-based
[1] = biological target: T1, KRAS G12V protein in SW620 cells (Homo sapiens, UniProt P01116, G12V); experiment: KRAS degradation assay (Western Blot) in SW620 cells; settings: for DC50: 24 h; for Dmax: SW-620, 24 h
T1 construct: endogenous in cells; host or cells: SW620
Summary of the method: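 Western blot read-out: KRAS band gray value divided by β-actin, compared with DMSO control to give degradation rate. DC50 and Dmax came from log concentration–response fits after 24 h compound exposure (0.03–3000 nM final, 0.25% DMSO) at 37 °C, 5% CO2.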

[2] = biological target: T2, KRAS WT (expanded) protein in MKN1 cells (Homo sapiens, UniProt P01116); experiment: KRAS degradation assay (Western Blot) in MKN1 cells; settings: for DC50: 24 h; for Dmax: MKN-1, 24 h
T2 construct: endogenous in cells; host or cells: MKN1 (MKN-1)
T2 sequence (P01116 1-188 isoform P01116-2): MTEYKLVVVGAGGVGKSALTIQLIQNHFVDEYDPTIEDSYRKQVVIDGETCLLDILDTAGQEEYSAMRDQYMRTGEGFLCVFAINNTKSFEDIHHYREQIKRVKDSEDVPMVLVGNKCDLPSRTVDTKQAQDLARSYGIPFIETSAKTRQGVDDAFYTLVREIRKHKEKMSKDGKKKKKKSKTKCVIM
Description: (§1) Test Example 5: KRAS G12C, KRAS G12D, KRAS G12V, KRAS G13D, and KRAS WT (Expanded) Degradation Assays
(§2) The degradation effect of the compounds on KRAS was investigated on KRAS G12C mutant human non-small cell lung cancer cell NCI-H358, KRAS G12D mutant human metastatic pancreatic cancer cell AsPc-1, KRAS G12D mutant human lung cancer cell A427, KRAS G12V mutant human colorectal cancer cell SW620, KRAS G12V mutant human lung cancer cell SW900, KRAS G13D mutant human colorectal cancer epithelial cell DLD-1, and KRAS WT human gastric cancer cell MKN-1. The specific procedures were as follows: 0.95 mL of cells were seeded into each well of a 24-well cell culture plate to achieve a cell density of 5×10^5 cells/well; and the cell plate was incubated in an incubator at 37° C. with 5% CO2 overnight. Then 50 μL of the compound solution after dilution was added to each of the wells with the corresponding cells, so that the final concentration of the compound was in a range of 0.03-3000 nM. The final concentration of DMSO was 0.25%. After the compounds were added, the cell plate was incubated in an incubator at 37° C. with 5% CO2 for 24 h. The culture medium in the 24-well cell culture plate was then removed, and the plate was washed twice with 1×PBS (KeyGEN). 120 μL of RIPA (strong) lysis buffer (Beyotime) (supplemented with 1 mM phenylmethylsulfonyl fluoride, a protease inhibitor mixture (Beyotime), and a protease phosphatase inhibitor mixture (Beyotime)) was added to lyse adherent SW900 cells at the bottom of the cell culture plate. After the plate was left to stand on ice for 30 min, the protein lysate in each well was transferred to a 1.5 mL centrifuge tube and centrifuged at 15000 g for 20 min at 4° C. The cell lysate supernatants after centrifugation were cryopreserved in a refrigerator at −80° C. for later use.
(§3) After the samples of the cell lysate supernatants that had been prepared were thawed from the refrigerator at −80° C., the total protein concentrations of the cell lysates were determined using a BCA protein quantification kit (Tiangen). The total protein concentrations of the samples were then adjusted to 0.5 μg/μL with PBS and 5×SDS-PAGE protein loading buffer (Beyotime), and the samples were incubated in a water bath at 100° C. for 15 min. The samples were then incubated in an ice bath for 5 min and centrifuged at 14000 g for 1 min at 4° C., and the supernatants were mixed well as loading samples for the Western Blot assay. The samples were loaded into wells of a 10% precast gel (KeyGEN) with a loading volume of 10 μL (total protein: 5 μg), a sufficient Tris-MOPS-SDS running buffer (Adamas) was added, and then electrophoresis was performed at a constant voltage of 120 V for 55 min. After the electrophoresis, the proteins on the gel were transferred to PVDF membranes at a constant current of 250 mA for 55 min. After the membrane transfer, the PVDF membranes were incubated in 1× Quick Block blocking buffer (Beyotime)at room temperature for 30 min. After the blocking, the PVDF membranes were separately incubated at 4° C. overnight with the KRAS antibody (Abcam) diluted in a ratio of 1:1000 and the β-actin antibody (Abcam) diluted in a ratio of 1:2000 in 5% BSA as the diluent, and then washed with 1×TBST buffer (2.4 g of Tris, 8.8 g of NaCl, 1.5 mL of Tween 20, with pH adjusted to 7.4, with the volume brought to 1 L) 3 times for 10 min/time. The membranes were incubated with a secondary antibody (Abcam) diluted in 5% BSA at room temperature for 2 h, and then washed with 1×TBST buffer 3 times for 10 min/time. Finally, the membranes were incubated with Clarity Western ECL Substrate (BIO-RAD) for 5 min for luminescence and color development, and a ChemiScope 6200 Touch chemiluminescence imaging system (Clinx) was used for color development and protein mapping. Gray value analysis of the protein maps was performed using the chemiluminescence analysis software (Clinx). […]

[3] = biological target: T3, KRAS G12C protein in NCI-H358 cells (Homo sapiens, UniProt P01116, G12C); experiment: KRAS degradation assay (Western Blot) in NCI-H358 cells; settings: 24 h
T3 construct: endogenous in cells; host or cells: NCI-H358
T3 sequence (P01116 1-188 isoform P01116-2 G12C): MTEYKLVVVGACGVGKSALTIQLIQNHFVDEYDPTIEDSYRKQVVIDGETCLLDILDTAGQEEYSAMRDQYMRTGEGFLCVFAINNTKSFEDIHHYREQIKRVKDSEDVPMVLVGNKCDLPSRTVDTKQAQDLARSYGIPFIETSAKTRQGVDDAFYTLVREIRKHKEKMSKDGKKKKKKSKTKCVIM
Description: as §1, §2, §3

[4] = biological target: T4, KRAS G13D protein in DLD-1 cells (Homo sapiens, UniProt P01116, G13D); experiment: KRAS degradation assay (Western Blot) in DLD-1 cells; settings: 24 h
T4 construct: endogenous in cells; host or cells: DLD-1
T4 sequence (P01116 1-188 isoform P01116-2 G13D): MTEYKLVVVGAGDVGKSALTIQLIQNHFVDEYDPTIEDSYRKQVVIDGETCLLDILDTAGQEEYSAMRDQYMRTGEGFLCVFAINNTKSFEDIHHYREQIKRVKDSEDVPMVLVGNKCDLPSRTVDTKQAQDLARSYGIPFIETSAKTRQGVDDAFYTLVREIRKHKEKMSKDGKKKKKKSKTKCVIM
Summary of the method: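 AsPc-1, A427, DLD-1 and SW900 cells (5×10^5/well) were treated 24 h at 37 °C with compound at 0.03-3000 nM final (0.25% DMSO). KRAS in lysates was detected by Western blot (5 μg protein, ECL), normalized to β-actin and compared with control to derive DC50 and Dmax.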

[5] = biological target: T5, KRAS G12D protein in AsPc-1 cells (Homo sapiens, UniProt P01116, G12D); experiment: KRAS degradation assay (Western Blot) in AsPc-1 cells; settings: for DC50: 24 h; for Dmax: ASPC1, 24 h
T5 construct: endogenous in cells; host or cells: AsPc-1
T5 sequence (P01116 1-188 isoform P01116-2 G12D): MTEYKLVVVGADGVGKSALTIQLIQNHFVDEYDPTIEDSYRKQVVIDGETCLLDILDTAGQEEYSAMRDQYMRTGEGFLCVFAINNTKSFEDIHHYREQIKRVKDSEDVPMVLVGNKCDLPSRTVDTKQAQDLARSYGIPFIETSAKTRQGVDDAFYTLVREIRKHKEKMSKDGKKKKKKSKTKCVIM
Description: as §1, §2, §3

[6] = system: KRAS G12D mutant human metastatic pancreatic cancer cell AsPc-1; experiment: 3D cell proliferation inhibition assay, AsPc-1; settings: ASPC1, 168 h, 3D culture, 7 days, CTG
Summary of the method: (§4)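 Cells were seeded in low-adsorption 96-well plates at 5×10^2 cells/well (MKN1 at 1×10^3) with compounds at final 10000-0.026 nM, 0.2% DMSO, and grown 7 days at 37° C. CTG luminescence gave inhibition relative to DMSO and medium-only controls, and IC50 came from a log-concentration curve fit.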

[7] = system: KRAS G12C mutant human non-small cell lung cancer cell NCI-H358; experiment: 3D cell proliferation inhibition assay, NCI-H358; settings: NCI-H358, 168 h, 3D culture, 7 days, CTG
Summary of the method: as §4

[8] = system: KRAS G12V mutant human colorectal cancer cell SW620; experiment: 3D cell proliferation inhibition assay, SW620; settings: SW-620, 168 h, 3D culture, 7 days, CTG
Summary of the method: as §4

[9] = system: KRAS G13D mutant human colorectal cancer epithelial cell DLD-1; experiment: 3D cell proliferation inhibition assay, DLD-1; settings: DLD-1, 168 h, 3D culture, 7 days, CTG
Summary of the method: as §4

[10] = system: KRAS WT human gastric cancer cell MKN1; experiment: 3D cell proliferation inhibition assay, MKN1; settings: MKN-1, 168 h, 3D culture, 7 days, CTG
Summary of the method: as §4

T1 sequence (P01116 1-188 isoform P01116-2 G12V): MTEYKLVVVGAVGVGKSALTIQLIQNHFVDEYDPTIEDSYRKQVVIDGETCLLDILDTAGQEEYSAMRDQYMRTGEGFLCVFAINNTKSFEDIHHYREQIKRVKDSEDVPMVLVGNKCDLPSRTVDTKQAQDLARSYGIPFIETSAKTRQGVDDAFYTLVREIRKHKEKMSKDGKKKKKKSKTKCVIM

| Compound | DC50 [1] [nM] | Dmax [1] [%] | DC50 [2] [nM] | Dmax [2] [%] | DC50 [3] [nM] | Dmax [3] [%] | DC50 [4] [nM] | Dmax [4] [%] | DC50 [5] [nM] | Dmax [5] [%] | IC50 [6] [nM] | IC50 [7] [nM] | IC50 [8] [nM] | IC50 [9] [nM] | IC50 [10] [nM] |
| --- | --- | --- | --- | --- | --- | --- | --- | --- | --- | --- | --- | --- | --- | --- | --- |
| [2H]C([2H])([2H])Oc1ccc(C(=O)N2CCC3(CCC(CN4CCN(C[C@@H](C)COc5nc(N6CCC[C@@](C)(O)C6)c6cnc(-c7cc(O)cc8ccc(F)c(C#C)c78)c(F)c6n5)CC4)CC3)CC2)cc1N1CCC(=O)NC1=O [Example 164, 1-(5-(9-((4-((R)-3-((7-(8-ethynyl-7-fluoro-3-hydroxynaphthalen-1-yl)-8-fluoro-4-((R)-3-hydroxy-3-methylpiperidin-1-yl)pyrido[4,3-d]pyrimidin-2-yl)oxy)-2-methylpropyl)piperazin-1-yl)methyl)-3-azaspiro[5.5]undecane-3-carbonyl)-2-(methoxy-d3)phenyl)dihydropyrimidine-2,4(1H,3H)-dione] | 7.48 | 99.5 | 1.25 | 99.5 | 1.11 | 98.2 | 4.39 | 100 | 5.91 | 99.6 | 12.1 | 4.66 | 3.76 | 3.9 | 22.6 |
| [2H]C([2H])([2H])Oc1ccc(C(=O)N2CCC3(CCC(CN4CCN(CC5(COc6nc(N7CCC[C@@](C)(O)C7)c7cnc(-c8cc(O)cc9ccc(F)c(C#C)c89)c(F)c7n6)CC5)CC4)CC3)CC2)cc1N1CCC(=O)NC1=O [Example 170, (R)-1-(5-(9-((4-((1-(((7-(8-ethynyl-7-fluoro-3-hydroxynaphthalen-1-yl)-8-fluoro-4-(3-hydroxy-3-methylpiperidin-1-yl)pyrido[4,3-d]pyrimidin-2-yl)oxy)methyl)cyclopropyl)methyl)piperazin-1-yl)methyl)-3-azaspiro[5.5]undecane-3-carbonyl)-2-(methoxy-d3)phenyl)dihydropyrimidine-2,4(1H,3H)-dione] | 2.35 | 97.7 | 0.76 | 99.3 | 2.65 | 96.1 | 1.96 | 99.9 | 5.53 | 100 | 6.31 | 2.49 | 2.59 | 6.28 | 6.7 |
| C#Cc1c(F)ccc2cc(O)cc(-c3ncc4c(N5CCC[C@@](C)(O)C5)nc(OC[C@H](C)CN5CCN(CC6CCC7(CC6)CCN(C(=O)c6ccc(C)c(N8CCC(=O)NC8=O)c6)CC7)CC5)nc4c3F)c12 [Example 47, 1-(5-(9-((4-((R)-3-((7-(8-ethynyl-7-fluoro-3-hydroxynaphthalen-1-yl)-8-fluoro-4-((R)-3-hydroxy-3-methylpiperidin-1-yl)pyrido[4,3-d]pyrimidin-2-yl)oxy)-2-methylpropyl)piperazin-1-yl)methyl)-3-azaspiro[5.5]undecane-3-carbonyl)-2-methylphenyl)dihydropyrimidine-2,4(1H,3H)-dione] | 0.99 | 100 | 0.28 | 97.4 | 1.7 | 88.9 | 2.05 | 100 | 18.7 | 93.3 | 6.48 | 2.33 | 1.92 | 3.55 | 2.33 |
| C#Cc1c(F)ccc2cc(O)cc(-c3ncc4c(N5CCC[C@@](C)(O)C5)nc(OCC5(CN6CCN(CC7CCC8(CC7)CCN(C(=O)c7cc(N9CCC(=O)NC9=O)c(C)cc7F)CC8)CC6)CC5)nc4c3F)c12 [Example 91, (R)-1-(5-(9-((4-((1-(((7-(8-ethynyl-7-fluoro-3-hydroxynaphthalen-1-yl)-8-fluoro-4-(3-hydroxy-3-methylpiperidin-1-yl)pyrido[4,3-d]pyrimidin-2-yl)oxy)methyl)cyclopropyl)methyl)piperazin-1-yl)methyl)-3-azaspiro[5.5]undecane-3-carbonyl)-4-fluoro-2-methylphenyl)dihydropyrimidine-2,4(1H,3H)-dione] | 5.16 | 100 | 1.15 | 98.9 | 6.04 | 92.7 | 8.8 | 100 | – | – | 4.26 | 2.13 | 1.92 | 8.33 | 5.41 |

Reference: patent US20260167622A1, “PAN-KRAS DEGRADING AGENT, AND PREPARATION METHOD THEREFOR AND USE THEREOF” (LEADINGTAC PHARMACEUTICAL (SHAOXING) CO., LTD., priority 2022, published 2026)
